Source: publication PMC6668346 (Journal of medicinal chemistry, 2018)
“And” between values parts separate entries of the source, which are not always exact repeats. Identical values can stand only once.

Test system: LAT1
Assay: not given
Conditions: Xenopus laevis oocytes; cited from earlier work

SMILES	Km [µM]
N[C@@H](Cc1ccccc1)C(=O)O [Compound 50, L-phenylalanine, reference compound]	14.2
N[C@H](Cc1ccccc1)C(=O)O [Compound 50-D, D-Phe]	121

Molecular target: T1, human LAT1 (Homo sapiens, UniProt Q01650)
Assay: not given
Assay type: cell-based
Conditions: 200 μM, 3 min; average of seven experiments

T1 sequence (Q01650 whole entry): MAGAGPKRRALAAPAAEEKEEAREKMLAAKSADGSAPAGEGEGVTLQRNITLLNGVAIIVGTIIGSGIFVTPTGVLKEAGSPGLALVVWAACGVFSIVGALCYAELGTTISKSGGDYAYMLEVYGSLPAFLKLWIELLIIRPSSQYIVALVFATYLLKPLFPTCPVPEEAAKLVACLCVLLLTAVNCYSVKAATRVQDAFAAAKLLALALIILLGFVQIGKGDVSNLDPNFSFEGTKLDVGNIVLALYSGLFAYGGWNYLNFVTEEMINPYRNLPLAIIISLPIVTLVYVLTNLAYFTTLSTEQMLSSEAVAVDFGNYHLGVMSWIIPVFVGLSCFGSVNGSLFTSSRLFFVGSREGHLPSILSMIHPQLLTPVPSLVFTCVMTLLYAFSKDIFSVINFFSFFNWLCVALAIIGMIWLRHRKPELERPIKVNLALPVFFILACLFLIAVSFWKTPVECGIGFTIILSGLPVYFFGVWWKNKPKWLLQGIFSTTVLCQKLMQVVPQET
T1 sequence (P08195 102-630 partner): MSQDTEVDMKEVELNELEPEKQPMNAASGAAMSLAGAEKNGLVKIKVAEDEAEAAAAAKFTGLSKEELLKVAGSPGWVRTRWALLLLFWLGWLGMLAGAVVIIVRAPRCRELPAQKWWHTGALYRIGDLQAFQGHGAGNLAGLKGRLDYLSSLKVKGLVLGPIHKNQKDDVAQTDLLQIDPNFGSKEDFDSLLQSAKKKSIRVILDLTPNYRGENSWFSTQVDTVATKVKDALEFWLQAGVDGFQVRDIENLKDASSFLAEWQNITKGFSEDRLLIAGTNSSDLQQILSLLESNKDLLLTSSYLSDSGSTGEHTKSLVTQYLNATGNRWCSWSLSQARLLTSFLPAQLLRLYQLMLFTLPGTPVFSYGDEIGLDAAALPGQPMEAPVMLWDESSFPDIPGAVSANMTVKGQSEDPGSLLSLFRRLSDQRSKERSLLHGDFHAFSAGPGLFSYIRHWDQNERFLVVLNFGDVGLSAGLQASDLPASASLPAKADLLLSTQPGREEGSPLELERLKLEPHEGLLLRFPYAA

SMILES	efflux rate of [3H]-gabapentin
N[C@@H](Cc1ccccc1)C(=O)O [Compound 50, L-phenylalanine, reference compound]	2.7 fmol/min and 2.7 ± 0.3 fmol/min

Same assay, conditions: based on trans-stimulation assay

SMILES	LAT1 substrate activity (in words)
CC(N)(Cc1ccccc1)C(=O)O (stereo in doubt) [Compound 92-D, α-methyl phenylalanine]	substrates
NCCCC[C@H](N)C(=O)O [Compound 55, L-Lys, reference compound]	none of which were LAT1 substrates
N[C@@H](CCC(=O)O)C(=O)O [Compound 57, L-Glu, reference compound]	none of which were LAT1 substrates
N[C@@H](Cc1cn(Cc2ccccc2)cn1)C(=O)O [Compound 59, benzyl histidine]	substrates
COC(=O)c1cc(C)cc(C[C@H](N)C(=O)O)c1 [Compound 63]	lost activity relative to their parent compounds
Cc1cc(C[C@H](N)C(=O)O)cc(C(=O)O)c1 [Compound 64]	lost activity relative to their parent compounds
NCc1cccc(C[C@H](N)C(=O)O)c1 [Compound 74]	LAT1 substrates
COC(=O)c1cccc(C[C@@H](N)C(=O)O)c1 [Compound 79-D]	potentially not a substrate
CC(C)(C)OC(=O)c1cccc(C[C@H](N)C(=O)O)c1 [Compound 81]	substrates of LAT1
N[C@@H](Cc1cccc(C(=O)OCCO)c1)C(=O)O [Compound 82]	substrates of LAT1
N[C@@H](Cc1cccc(C(=O)O)c1)C(=O)O [Compound 83]	LAT1 substrates
N[C@@H](Cc1cccc(CC(=O)O)c1)C(=O)O [Compound 84]	nonsubstrates
C[C@](N)(Cc1ccccc1)C(=O)O [Compound 92, α-methyl phenylalanine]	substrates
NC(Cc1ccccc1)(Cc1ccccc1)C(=O)O [Compound 93]	inactive
CSCC[C@@](N)(Cc1ccccc1)C(=O)O [Compound 98-D]	lost all activity
N[C@@](Cc1ccccc1)(Cc1c[nH]cn1)C(=O)O [Compound 107]	inactive

Molecular target: T1, human LAT1
Assay: cis-inhibition assay: inhibition of [3H]-gabapentin uptake into HEK-hLAT1 cells
Assay type: cell-based
Conditions: L vs D isomer

SMILES	selectivity for the L isomers in cis-inhibition assay [fold]
CC[C@H](C)[C@H](N)C(=O)O [Compound 47, L-Ile]	> 20
CC(C)[C@H](N)C(=O)O [Compound 49, L-Val]	> 20
N[C@@H](Cc1c[nH]cn1)C(=O)O [Compound 53, L-histidine]	> 20

Same assay, conditions: cis-inhibition

SMILES	LAT1 ligand potency / affinity (in words)
N[C@@H](Cc1cccc(Cc2ccccc2)c1)C(=O)O [Compound 69]	the most potent ligands
N[C@@H](Cc1cccc(-c2ccccc2)c1)C(=O)O [Compound 70]	the most potent ligands
